From patent US11041009B2, “Glucose responsive insulin comprising a tri-valent sugar cluster for treatment of diabetes” (Merck Sharp & Dohme Corp., priority 2017, dated 2021)

Tests used:
[1] = target: T1, Human macrophage mannose receptor 1 (MRC1) (Homo sapiens, UniProt P22897); experiment: MRC1 competition binding assay with Eu-labeled mannosylated-BSA (Methods E and F); settings: Method F: MRC1 assay in a 384-well plate; read-out: MRC1 Binding IP‡
T1 sequence (P22897 19-1456): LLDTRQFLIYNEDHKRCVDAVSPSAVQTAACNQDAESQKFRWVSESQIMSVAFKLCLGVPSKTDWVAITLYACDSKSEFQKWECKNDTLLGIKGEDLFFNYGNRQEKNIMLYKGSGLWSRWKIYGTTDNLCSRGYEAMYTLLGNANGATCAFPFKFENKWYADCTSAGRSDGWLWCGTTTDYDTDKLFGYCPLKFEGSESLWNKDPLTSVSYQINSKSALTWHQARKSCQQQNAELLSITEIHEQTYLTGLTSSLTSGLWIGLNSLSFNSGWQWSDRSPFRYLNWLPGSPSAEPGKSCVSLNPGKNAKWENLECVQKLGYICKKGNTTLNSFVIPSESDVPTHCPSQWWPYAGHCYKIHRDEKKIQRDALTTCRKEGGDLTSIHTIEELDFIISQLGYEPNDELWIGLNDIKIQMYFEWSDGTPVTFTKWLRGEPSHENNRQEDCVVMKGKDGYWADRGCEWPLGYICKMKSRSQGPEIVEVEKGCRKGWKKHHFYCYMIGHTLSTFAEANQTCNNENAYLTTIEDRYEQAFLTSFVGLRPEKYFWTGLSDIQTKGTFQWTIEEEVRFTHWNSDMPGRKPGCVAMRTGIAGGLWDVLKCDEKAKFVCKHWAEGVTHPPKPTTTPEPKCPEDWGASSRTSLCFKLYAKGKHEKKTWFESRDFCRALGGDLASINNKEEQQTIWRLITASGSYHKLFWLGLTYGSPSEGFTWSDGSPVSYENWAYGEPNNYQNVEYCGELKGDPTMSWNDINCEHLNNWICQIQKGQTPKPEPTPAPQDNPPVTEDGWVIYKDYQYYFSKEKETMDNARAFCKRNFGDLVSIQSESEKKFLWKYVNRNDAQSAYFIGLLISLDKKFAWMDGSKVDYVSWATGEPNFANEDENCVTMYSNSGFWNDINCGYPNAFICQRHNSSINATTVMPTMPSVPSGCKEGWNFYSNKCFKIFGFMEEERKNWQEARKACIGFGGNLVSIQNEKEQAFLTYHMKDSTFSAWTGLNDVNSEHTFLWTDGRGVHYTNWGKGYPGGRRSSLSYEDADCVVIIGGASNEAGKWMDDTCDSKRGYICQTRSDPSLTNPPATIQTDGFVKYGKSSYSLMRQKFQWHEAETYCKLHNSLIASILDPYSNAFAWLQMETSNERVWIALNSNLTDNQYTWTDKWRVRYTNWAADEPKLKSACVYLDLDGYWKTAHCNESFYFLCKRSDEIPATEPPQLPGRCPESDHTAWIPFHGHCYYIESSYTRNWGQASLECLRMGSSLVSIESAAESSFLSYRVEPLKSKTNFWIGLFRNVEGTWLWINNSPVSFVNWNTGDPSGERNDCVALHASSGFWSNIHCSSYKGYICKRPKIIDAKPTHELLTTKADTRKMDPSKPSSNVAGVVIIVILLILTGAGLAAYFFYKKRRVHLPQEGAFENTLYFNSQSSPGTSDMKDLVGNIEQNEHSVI
Method: Human macrophage mannose receptor 1 (MRC1) Binding Assays were performed as follows.
The competition binding assay for MRC1 utilized a ligand, mannosylated-BSA labeled with the DELFIA Eu-N1-ITC reagent, as reported in the literature. Assay was performed either in a 96-well plate with 100 μL well volume (Method E) or in a 384-well plate with 25 μL well volume (Method F). […] The antibody was incubated in the plate for 1 hr at room temperature with shaking. The plate was washed with wash buffer 3-5 times followed by addition of MRC1 (2 ng/μl final concentration) in PBS containing 1% stabilizer BSA. The plate was incubated at room temperature with gentle shaking for 1 hr. The plate was washed three times with wash buffer. The IOC molecules in 12.5 μL (or 50 μL depending on plate format) buffer at appropriate concentrations were added followed by 12.5 μL (or 50 μL) Eu-mannosylated-BSA (0.1 nM final concentration) in 50 mM Tris, pH 7.5 containing 100 mM NaCl, 5 mM CaCl2, 1 mM MgCl2 and 0.2% stabilizer BSA. The plate was incubated for 2 hrs at room temperature with shaking followed by washing three times with wash buffer. Perkin Elmer Eu-inducer reagent was added and incubated for 30 min at room temperature prior to detection of the Eu signal (Excitation=340 nm: Emission=615 nm).

[2] = target: T2, human IR(B) (Homo sapiens, UniProt P06213); experiment: Insulin Receptor Phosphorylation Assay (MSD pIR assay; Methods A and B); format: cell-based; settings: Method B: IR phosphorylation assay, 384-well with automated liquid dispense; CHO cells expressing human IR(B); read-out: IR Activation IP†
T2 construct: expressed in transfected cells
T2 sequence (P06213 28-758 limits assumed): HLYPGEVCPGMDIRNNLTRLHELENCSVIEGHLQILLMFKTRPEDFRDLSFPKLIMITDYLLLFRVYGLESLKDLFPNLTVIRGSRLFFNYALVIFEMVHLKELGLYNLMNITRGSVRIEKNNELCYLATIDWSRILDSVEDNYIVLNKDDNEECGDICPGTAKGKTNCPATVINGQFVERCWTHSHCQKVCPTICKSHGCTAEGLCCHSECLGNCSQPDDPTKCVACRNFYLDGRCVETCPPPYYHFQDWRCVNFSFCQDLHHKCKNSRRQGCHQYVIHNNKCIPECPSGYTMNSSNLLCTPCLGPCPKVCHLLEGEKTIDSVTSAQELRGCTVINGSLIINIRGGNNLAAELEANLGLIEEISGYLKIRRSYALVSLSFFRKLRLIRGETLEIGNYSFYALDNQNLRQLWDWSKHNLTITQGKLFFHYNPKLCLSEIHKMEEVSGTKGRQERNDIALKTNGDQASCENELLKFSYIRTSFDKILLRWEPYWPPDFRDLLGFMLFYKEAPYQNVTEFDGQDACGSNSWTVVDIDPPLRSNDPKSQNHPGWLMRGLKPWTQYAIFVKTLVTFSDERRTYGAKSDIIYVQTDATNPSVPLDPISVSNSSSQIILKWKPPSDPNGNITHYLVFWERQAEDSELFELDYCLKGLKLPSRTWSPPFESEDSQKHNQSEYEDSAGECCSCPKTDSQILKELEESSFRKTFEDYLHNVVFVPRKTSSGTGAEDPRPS
T2 sequence (P06213 763-1382 partner limits assumed): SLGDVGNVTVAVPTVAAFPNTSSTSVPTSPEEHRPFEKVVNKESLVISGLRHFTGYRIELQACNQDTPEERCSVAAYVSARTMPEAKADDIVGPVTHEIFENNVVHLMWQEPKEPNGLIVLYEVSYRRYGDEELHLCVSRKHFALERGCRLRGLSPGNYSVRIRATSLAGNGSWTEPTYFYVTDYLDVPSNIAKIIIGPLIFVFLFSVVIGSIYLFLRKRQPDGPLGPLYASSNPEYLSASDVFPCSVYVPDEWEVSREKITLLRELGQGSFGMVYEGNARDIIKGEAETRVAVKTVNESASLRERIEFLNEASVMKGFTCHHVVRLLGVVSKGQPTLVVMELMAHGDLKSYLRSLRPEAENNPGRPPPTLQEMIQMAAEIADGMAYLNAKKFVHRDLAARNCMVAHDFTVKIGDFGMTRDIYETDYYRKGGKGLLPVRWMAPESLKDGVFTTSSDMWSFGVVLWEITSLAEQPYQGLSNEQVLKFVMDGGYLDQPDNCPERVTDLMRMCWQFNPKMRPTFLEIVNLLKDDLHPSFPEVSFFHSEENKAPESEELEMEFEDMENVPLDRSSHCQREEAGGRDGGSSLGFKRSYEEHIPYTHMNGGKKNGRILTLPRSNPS
Method: Insulin Receptor Phosphorylation Assays were performed as follows.
Cells were harvested and frozen in aliquots for use in the MSD pIR assay. Briefly, the frozen cells were plated in either 96-well (40,000 cells/well, Method A) or 384-well (10,000 cells/well, Method B) clear tissue culture plates and allowed to recover. IOC molecules at the appropriate concentrations were added and the cells incubated for 8 min at 37° C. The media was aspirated and chilled MSD cell lysis buffer was added as per MSD kit instructions. The cells were lysed on ice for 40 min and the lysate then mixed for 10 minutes at room temperature. The lysate was transferred to the MSD kit pIR detection plates. The remainder of the assay was carried out following the MSD kit recommended protocol.

| SMILES | IC50 [1] | EC50 [2] |
| --- | --- | --- |
| CC[C@H](C)[C@H](NC(=O)CN)C(=O)N[C@H](C(=O)N[C@@H](CCC(=O)O)C(=O)N[C@@H](CCC(N)=O)C(=O)N[C@H]1CSSC[C@@H]2NC(=O)[C@H]([C@@H](C)CC)NC(=O)[C@H](CO)NC(=O)[C@H]([C@@H](C)O)NC(=O)[C@H](CSSC[C@H](NC(=O)[C@H](CC(C)C)NC(=O)[C@H](Cc3c[nH]cn3)NC(=O)[C@H](CCC(N)=O)NC(=O)[C@H](CC(N)=O)NC(=O)[C@@H](NC(=O)[C@H](Cc3ccccc3)NC(=O)CCCCC(=O)N(CC(=O)NCCO[C@H]3O[C@H](CO)[C@@H](O)[C@H](O)[C@@H]3O)CC(=O)N(CCO[C@H]3O[C@H](CO)[C@@H](O)[C@H](O)[C@@H]3O)CCO[C@H]3O[C@H](CO)[C@@H](O)[C@H](O)[C@@H]3O)C(C)C)C(=O)NCC(=O)N[C@@H](CO)C(=O)N[C@@H](Cc3c[nH]cn3)C(=O)N[C@@H](CC(C)C)C(=O)N[C@@H](C(C)C)C(=O)N[C@@H](CCC(=O)O)C(=O)N[C@@H](C)C(=O)N[C@@H](CC(C)C)C(=O)N[C@@H](Cc3ccc(O)cc3)C(=O)N[C@@H](CC(C)C)C(=O)N[C@@H](C(C)C)C(=O)N[C@H](C(=O)NCC(=O)N[C@@H](CCC(=O)O)C(=O)N[C@@H](CCCNC(=N)N)C(=O)NCC(=O)N[C@@H](Cc3ccccc3)C(=O)N[C@@H](Cc3ccccc3)C(=O)N[C@@H](Cc3ccc(O)cc3)C(=O)N[C@H](C(=O)N3CCC[C@H]3C(=O)N[C@@H](CCCCNC(=O)CCCCC(=O)N(CC(=O)NCCO[C@H]3O[C@H](CO)[C@@H](O)[C@H](O)[C@@H]3O)CC(=O)N(CCO[C@H]3O[C@H](CO)[C@@H](O)[C@H](O)[C@@H]3O)CCO[C@H]3O[C@H](CO)[C@@H](O)[C@H](O)[C@@H]3O)C(=O)N[C@H](C(=O)O)[C@@H](C)O)[C@@H](C)O)CSSC[C@@H](C(=O)N[C@@H](CC(N)=O)C(=O)O)NC(=O)[C@H](Cc3ccc(O)cc3)NC(=O)[C@H](CC(N)=O)NC(=O)[C@H](CCC(=O)O)NC(=O)[C@H](CC(C)C)NC(=O)[C@H](CCC(N)=O)NC(=O)[C@H](Cc3ccc(O)cc3)NC(=O)[C@H](CC(C)C)NC(=O)[C@H](CO)NC2=O)NC1=O)C(C)C [IOC-61] | 17.9 nM | 1.13 nM |
| CC[C@H](C)[C@H](NC(=O)CNC(=O)CCCCC(=O)N(CC(=O)NCCO[C@H]1O[C@H](CO)[C@@H](O)[C@H](O)[C@@H]1O)CC(=O)N(CCO[C@H]1O[C@H](CO)[C@@H](O)[C@H](O)[C@@H]1O)CCO[C@H]1O[C@H](CO)[C@@H](O)[C@H](O)[C@@H]1O)C(=O)N[C@H](C(=O)N[C@@H](CCC(=O)O)C(=O)N[C@@H](CCC(N)=O)C(=O)N[C@H]1CSSC[C@@H]2NC(=O)[C@H]([C@@H](C)CC)NC(=O)[C@H](CO)NC(=O)[C@H]([C@@H](C)O)NC(=O)[C@H](CSSC[C@H](NC(=O)[C@H](CC(C)C)NC(=O)[C@H](Cc3c[nH]cn3)NC(=O)[C@H](CCC(N)=O)NC(=O)[C@H](CC(N)=O)NC(=O)[C@@H](NC(=O)[C@@H](N)Cc3ccccc3)C(C)C)C(=O)NCC(=O)N[C@@H](CO)C(=O)N[C@@H](Cc3c[nH]cn3)C(=O)N[C@@H](CC(C)C)C(=O)N[C@@H](C(C)C)C(=O)N[C@@H](CCC(=O)O)C(=O)N[C@@H](C)C(=O)N[C@@H](CC(C)C)C(=O)N[C@@H](Cc3ccc(O)cc3)C(=O)N[C@@H](CC(C)C)C(=O)N[C@@H](C(C)C)C(=O)N[C@H](C(=O)NCC(=O)N[C@@H](CCC(=O)O)C(=O)N[C@@H](CCCNC(=N)N)C(=O)NCC(=O)N[C@@H](Cc3ccccc3)C(=O)N[C@@H](Cc3ccccc3)C(=O)N[C@@H](Cc3ccc(O)cc3)C(=O)N[C@H](C(=O)N3CCC[C@H]3C(=O)N[C@@H](CCCCNC(=O)CCCCC(=O)N(CC(=O)NCCO[C@H]3O[C@H](CO)[C@@H](O)[C@H](O)[C@@H]3O)CC(=O)N(CCO[C@H]3O[C@H](CO)[C@@H](O)[C@H](O)[C@@H]3O)CCO[C@H]3O[C@H](CO)[C@@H](O)[C@H](O)[C@@H]3O)C(=O)N[C@H](C(=O)O)[C@@H](C)O)[C@@H](C)O)CSSC[C@@H](C(=O)N[C@@H](CC(N)=O)C(=O)O)NC(=O)[C@H](Cc3ccc(O)cc3)NC(=O)[C@H](CC(N)=O)NC(=O)[C@H](CCC(=O)O)NC(=O)[C@H](CC(C)C)NC(=O)[C@H](CCC(N)=O)NC(=O)[C@H](Cc3ccc(O)cc3)NC(=O)[C@H](CC(C)C)NC(=O)[C@H](CO)NC2=O)NC1=O)C(C)C [IOC-60] | 33.1 nM | 1.85 nM |
| CC[C@H](C)[C@H](NC(=O)CN)C(=O)N[C@H](C(=O)N[C@@H](CCC(=O)O)C(=O)N[C@@H](CCC(N)=O)C(=O)N[C@H]1CSSC[C@@H]2NC(=O)[C@H]([C@@H](C)CC)NC(=O)[C@H](CO)NC(=O)[C@H]([C@@H](C)O)NC(=O)[C@H](CSSC[C@H](NC(=O)[C@H](CC(C)C)NC(=O)[C@H](Cc3c[nH]cn3)NC(=O)[C@H](CCC(N)=O)NC(=O)[C@H](CC(N)=O)NC(=O)[C@@H](NC(=O)[C@H](Cc3ccccc3)NC(=O)CCCCC(=O)N(CC(=O)NCCO[C@@H]3O[C@@H](C)[C@@H](O)[C@@H](O)[C@@H]3O)CC(=O)N(CCO[C@H]3O[C@H](CO)[C@@H](O)[C@H](O)[C@@H]3O)CCO[C@H]3O[C@H](CO)[C@@H](O)[C@H](O)[C@@H]3O)C(C)C)C(=O)NCC(=O)N[C@@H](CO)C(=O)N[C@@H](Cc3c[nH]cn3)C(=O)N[C@@H](CC(C)C)C(=O)N[C@@H](C(C)C)C(=O)N[C@@H](CCC(=O)O)C(=O)N[C@@H](C)C(=O)N[C@@H](CC(C)C)C(=O)N[C@@H](Cc3ccc(O)cc3)C(=O)N[C@@H](CC(C)C)C(=O)N[C@@H](C(C)C)C(=O)N[C@H](C(=O)NCC(=O)N[C@@H](CCC(=O)O)C(=O)N[C@@H](CCCNC(=N)N)C(=O)NCC(=O)N[C@@H](Cc3ccccc3)C(=O)N[C@@H](Cc3ccccc3)C(=O)N[C@@H](Cc3ccc(O)cc3)C(=O)N[C@H](C(=O)N3CCC[C@H]3C(=O)N[C@@H](CCCCNC(=O)CCCCC(=O)N(CC(=O)NCCO[C@@H]3O[C@@H](C)[C@@H](O)[C@@H](O)[C@@H]3O)CC(=O)N(CCO[C@H]3O[C@H](CO)[C@@H](O)[C@H](O)[C@@H]3O)CCO[C@H]3O[C@H](CO)[C@@H](O)[C@H](O)[C@@H]3O)C(=O)N[C@H](C(=O)O)[C@@H](C)O)[C@@H](C)O)CSSC[C@@H](C(=O)N[C@@H](CC(N)=O)C(=O)O)NC(=O)[C@H](Cc3ccc(O)cc3)NC(=O)[C@H](CC(N)=O)NC(=O)[C@H](CCC(=O)O)NC(=O)[C@H](CC(C)C)NC(=O)[C@H](CCC(N)=O)NC(=O)[C@H](Cc3ccc(O)cc3)NC(=O)[C@H](CC(C)C)NC(=O)[C@H](CO)NC2=O)NC1=O)C(C)C [IOC-62] | 5.12 nM | 0.77 nM |
